PubChem BioAssay AID1259411 (Chemical Carcinogenesis Research Information System (CCRIS), 2018)
Active and inactive are the calls of the source. The rule behind the calls is not given here.

System: rodent carcinogenicity bioassays, tumor incidence
Experiment: CCRIS carcinogenicity studies
In short: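 Archive of carcinogenicity, mutagenicity, tumor promotion and tumor inhibition results drawn from journals, NCI reports and other sources, expert-reviewed; covers 1985-2011 and is no longer updated.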

Cc1cc2ccccc2c2ccc3c(c12)[C@@H]1O[C@@H]1[C@H](O)[C@H]3O
carcinogen call (Species: MOUSE, Strain/Sex: ICR/FEMALE, Route: INTRAPERITONEAL, Dose: 0, 8 NMOL IN 5 µL DMSO ON D 1, 16 NMOL IN 10 µL ON D 8 AND 32 NMOL IN 20 µL ON D 15 OF LIFE (STUDY DURATION: 35 WK), Tumor Site: Type of Lesion: LUNG: TUMOR): active; positive | carcinogen call (Species: MOUSE, Strain/Sex: ICR/FEMALE, Route: INTRAPERITONEAL, Dose: 0, 8 NMOL IN 5 µL DMSO TO PUPS ON D 1/OF LIFE THEN 16 NMOL IN 10 µL ON D 8 AND 3 NMOL IN 20 µL ON D 15 (STUDY DURATION:, Tumor Site: Type of Lesion: LUNG: TUMOR): active; positive | carcinogen call (Species: MOUSE, Strain/Sex: ICR/FEMALE, Route: INTRAPERITONEAL, Dose: 8 NMOL/5 µL DMSO ON DAY 1, 16 NMOL/10 µL ON DAY 8, AND 32 NMOL/20 µL ON DAY 15 OF AGE (STUDY DURATION: 35 WK), Tumor Site: Type of Lesion: LUNG: TUMORS): active; positive | carcinogen call (Species: MOUSE, Strain/Sex: ICR/MALE, Route: INTRAPERITONEAL, Dose: 0, 8 NMOL IN 5 µL DMSO ON D 1, 16 NMOL IN 10 µL ON D 8 AND 32 NMOL IN 20 µL ON D 15 OF LIFE (STUDY DURATION: 35 WK), Tumor Site: Type of Lesion: LUNG: TUMOR, LIVER: TUMOR): active; positive | carcinogen call (Species: MOUSE, Strain/Sex: ICR/MALE, Route: INTRAPERITONEAL, Dose: 0, 8 NMOL IN 5 µL DMSO TO PUPS ON D 1/OF LIFE THEN 16 NMOL IN 10 µL ON D 8 AND 3 NMOL IN 20 µL ON D 15 (STUDY DURATION:, Tumor Site: Type of Lesion: LUNG: TUMOR, LIVER: TUMOR): active; positive | carcinogen call (Species: MOUSE, Strain/Sex: ICR/MALE, Route: INTRAPERITONEAL, Dose: 8 NMOL/5 µL DMSO ON DAY 1, 16 NMOL/10 µL ON DAY 8, AND 32 NMOL/20 µL ON DAY 15 OF AGE (STUDY DURATION: 35 WK), Tumor Site: Type of Lesion: LUNG: TUMORS, LIVER: TUMORS): active; positive

Nc1ccc(N=Nc2ccccc2)c(N)n1
carcinogen call (Species: MOUSE, Strain/Sex: B6C3F1/FEMALE, Route: ORAL, Dose: 0, 600, 1200 PPM IN DIET, Dose: 0, 600, 1200 PPM IN DIET, Tumor Site: Type of Lesion: LIVER: HEPATOCELLULAR ADENOMA OR HEPATOCELLULAR CARCINOMA): active; positive | carcinogen call (Species: MOUSE, Strain/Sex: B6C3F1/MALE, Route: ORAL, Dose: 0, 600, 1200 PPM IN DIET, Dose: 0, 600, 1200 PPM IN DIET): active; positive | carcinogen call (Species: RAT, Strain/Sex: F344/FEMALE, Route: ORAL, Dose: 0, 3700, 7500 PPM IN DIET, Dose: 0, 3700, 7500 PPM IN DIET, Tumor Site: Type of Lesion: COLON: ADENOCARCINOMA (NOS)): active; positive | carcinogen call (Species: RAT, Strain/Sex: F344/MALE, Route: ORAL, Dose: 0, 3700, 7500 PPM IN DIET, Dose: 0, 3700, 7500 PPM IN DIET, Tumor Site: Type of Lesion: INTESTINES (COLON OR RECTUM): ADENOCARCINOMA (NOS), ADENOCARCINOMA (NOS) OR ADENOMA (NOS)): active; positive

C/[N+]([O-])=N/CO
carcinogen call (Species: HAMSTER, Strain/Sex: SYRIAN/MALE,FEMALE, Route: INTRAVENOUS, Dose: 10 MG/KG BW, 4-5 INJ, Tumor Site: Type of Lesion: LIVER: CYSTADENOMA AND CYSTIC LESIONS, VASCULAR TUMOR, HEPATOCELLULAR CARCINOMA, INTESTINES (LARGE): ADENOMA, ADENOCARCI): active; positive | carcinogen call (Species: HAMSTER, Strain/Sex: SYRIAN/MALE,FEMALE, Route: INTRAVENOUS, Dose: 15 MG/KG BW, 4-5 INJ, Tumor Site: Type of Lesion: LIVER: CYSTADENOMA AND CYSTIC LESIONS, VASCULAR TUMOR, HEPATOCELLULAR CARCINOMA, INTESTINES (LARGE): ADENOMA, ADENOCARCI): active; positive | carcinogen call (Species: HAMSTER, Strain/Sex: SYRIAN/MALE,FEMALE, Route: INTRAVENOUS, Dose: 20 MG/KG BW, 3 INJ, Tumor Site: Type of Lesion: LIVER: CYSTADENOMA AND CYSTIC LESIONS, GALL BLADDER: ADENOCARCINOMA, INTESTINES (LARGE): ADENOCARCINOMA, Tumor Site: Type of Lesion: LIVER: CYSTADENOMA AND CYSTIC LESIONS, GALL BLADDER: ADENOCARCINOMA, INTESTINES (LARGE): ADENOCARCINOMA): active; positive | carcinogen call (Species: HAMSTER, Strain/Sex: SYRIAN/MALE,FEMALE, Route: INTRAVENOUS, Dose: 20 MG/KG BW, SINGLE DOSE, Tumor Site: Type of Lesion: LIVER: ADENOCARCINOMA, HEPATOCELLULAR CARCINOMA, VASCULAR TUMOR, CYSTADENOMA AND CYSTIC LESIONS, INTESTINES (LARGE): ADE): active; positive | carcinogen call (Species: RAT, Strain/Sex: SPRAGUE-DAWLEY/MALE, Route: INTRAVENOUS, Dose: 25 MG/KG 1/WK FOR 5 WK, Tumor Site: Type of Lesion: INTESTINES (JEJUNUM OR ILEUM), INTESTINES (COLON OR RECTUM), CECUM, DUODENUM, Tumor Site: Type of Lesion: INTESTINES (JEJUNUM OR ILEUM), INTESTINES (COLON OR RECTUM), CECUM, DUODENUM): active; positive | carcinogen call (Species: RAT, Strain/Sex: SPRAGUE-DAWLEY/MALE, Route: INTRAVENOUS, Dose: 25 MG/KG 1/WK FOR 15 WK, Tumor Site: Type of Lesion: INTESTINES (JEJUNUM OR ILEUM), INTESTINES (COLON OR RECTUM), CECUM, DUODENUM, Tumor Site: Type of Lesion: INTESTINES (JEJUNUM OR ILEUM), INTESTINES (COLON OR RECTUM), CECUM, DUODENUM): active; positive | carcinogen call (Species: RAT, Strain/Sex: SPRAGUE-DAWLEY/MALE, Route: INTRAVENOUS, Dose: 25 MG/KG, SINGLE DOSE, Tumor Site: Type of Lesion: INTESTINES (JEJUNUM OR ILEUM), INTESTINES (COLON OR RECTUM)): active; positive

CCC(=O)O[C@H]1CC[C@H]2[C@@H]3CCC4=CC(=O)CC[C@]4(C)[C@H]3CC[C@]12C
carcinogen call (Species: MOUSE, Route: SUBCUTANEOUS IMPLANT, Tumor Site: Type of Lesion: CERVIX, UTERUS): active; positive | carcinogen call (Species: RAT, Route: SUBCUTANEOUS IMPLANT, Tumor Site: Type of Lesion: PROSTATE GLAND): active; positive

NNC(N)=O
carcinogen call (Species: MOUSE, Strain/Sex: SWISS/FEMALE, Route: ORAL, Dose: 0.0625% IN DRINKING WATER FOR LIFE, Tumor Site: Type of Lesion: BLOOD VESSELS: ANGIOMA, ANGIOSARCOMA, LUNG): active; positive | carcinogen call (Species: RAT, Strain/Sex: STRAIN-CD/FEMALE, Route: ORAL, Dose: 500, 1000 PPM IN DIET FOR 78 WK (LOW DOSE) OR 32 WK (HIGH DOSE)): inactive; negative
